Assay results reported in article PMC12655527, “An Investigational Study on the Role of ADME Agents’ Genetic Variation on DD217 Pharmacokinetics and Safety Profile” (Pharmaceuticals, 2025).
Where “and” joins values, the source holds several entries; their conditions need not be identical. Identical values can stand only once. Like-named read-outs stand apart in the source and are kept apart here.

Test: Pharmacokinetic parameters (Tmax, AUClast, Cmax) of DD217 in phase II trial patients
Type: in vivo, human (patients undergoing knee replacement surgery)
Parameters: AUClast (area under the concentration-time curve up to the last measurable point) / Cmax (maximum plasma concentration): unit not given here
Conditions: for AUC(0-t) / Cmax / Tmax: human, plasma, oral; for AUClast (area under the concentration-time curve up to the last measurable point) / Cmax (maximum plasma concentration) / Tmax (time to maximum plasma concentration): individual patients
Source text: The design, eligibility criteria, and outcomes of the phase II clinical trial evaluating the safety and tolerability of DD217 (NCT05189002, ClinicalTrials.gov) have been described previously. Briefly, this was a multicenter, double-blind, randomized, prospective phase II study designed to determine the optimal dosing regimen and to assess the safety and efficacy of DD217 for the prevention of venous thromboembolism (VTE) in patients undergoing knee replacement surgery. Patients were randomized into one of three groups: two groups received oral DD217 at doses of 40 mg or 60 mg once daily, starting on the morning of the first postoperative day, and one group received the active comparator, dalteparin sodium. The treatment duration was 14 days.
In total, data from 52 patients who underwent knee replacement surgery were included in the analysis. Of these, 34 patients received DD217 at daily doses of 40 mg (n = 16) or 60 mg (n = 18), and 18 patients received dalteparin sodium.
To characterize the pharmacokinetic profile of DD217 in our study, three parameters were assessed: Cmax, Tmax, and AUClast.

CC(=N)N(C)c1ccc(C(=O)Nc2ccc(C)cc2C(=O)Nc2ccc(Cl)cn2)cc1.Cl [DD217, N-(5-chloropyridin-2-yl)-5-methyl-2-[4-(N-methylacetimidamido)benzamido]benzamide hydrochloride]
AUC(0-t) (40 mg, CYP2C19 *1/*17, *17/*17, RM + UM (n = 9), mean ± SD, read-out: AUClast): 47.7 ± 42.6 ng·h/mL | Cmax (40 mg, CYP2C19 *1/*17, *17/*17, RM + UM (n = 9), mean ± SD, read-out: Cmax): 5.8 ± 6.73 ng/mL | Tmax (40 mg, CYP2C19 *1/*17, *17/*17, RM + UM (n = 9), mean ± SD, read-out: Tmax): 7.67 ± 6.71 h | AUC(0-t) (40 mg, CYP3A *1/*1, EM (n = 12), mean ± SD, read-out: AUClast): 40 ± 42.1 ng·h/mL | Cmax (40 mg, CYP3A *1/*1, EM (n = 12), mean ± SD, read-out: Cmax): 5.02 ± 6.92 ng/mL | Tmax (40 mg, CYP3A *1/*1, EM (n = 12), mean ± SD, read-out: Tmax): 11.8 ± 9.5 h | AUC(0-t) (60 mg/day, ABCB1 rs1045642 C/C (n 3), read-out: AUClast (SD)): 197 ng·h/mL | Cmax (60 mg/day, ABCB1 rs1045642 C/C (n 3), read-out: Cmax (SD)): 15.9 ng/mL | Tmax (60 mg/day, ABCB1 rs1045642 C/C (n 3), read-out: Tmax (SD)): 2 h | AUC(0-t) (60 mg/day, ABCB1 rs1045642 T/C (n 8), read-out: AUClast (SD)): 53.9 ng·h/mL | Cmax (60 mg/day, ABCB1 rs1045642 T/C (n 8), read-out: Cmax (SD)): 5.54 ng/mL | Tmax (60 mg/day, ABCB1 rs1045642 T/C (n 8), read-out: Tmax (SD)): 7.75 h | AUC(0-t) (60 mg/day, ABCB1 rs1045642 T/T (n 7), read-out: AUClast (SD)): 27.6 ng·h/mL | Cmax (60 mg/day, ABCB1 rs1045642 T/T (n 7), read-out: Cmax (SD)): 2.42 ng/mL | Tmax (60 mg/day, ABCB1 rs1045642 T/T (n 7), read-out: Tmax (SD)): 13.6 h | AUC(0-t) (60 mg/day, ABCB1 rs1128503 C/C (n 4), read-out: AUClast (SD)): 164 ng·h/mL | Cmax (60 mg/day, ABCB1 rs1128503 C/C (n 4), read-out: Cmax (SD)): 14.1 ng/mL | Tmax (60 mg/day, ABCB1 rs1128503 C/C (n 4), read-out: Tmax (SD)): 2 h | AUC(0-t) (60 mg/day, ABCB1 rs1128503 T/C (n 10), read-out: AUClast (SD)): 50.5 ng·h/mL | Cmax (60 mg/day, ABCB1 rs1128503 T/C (n 10), read-out: Cmax (SD)): 4.66 ng/mL | Tmax (60 mg/day, ABCB1 rs1128503 T/C (n 10), read-out: Tmax (SD)): 9 h | AUC(0-t) (60 mg/day, ABCB1 rs1128503 T/T (n 4), read-out: AUClast (SD)): 14 ng·h/mL | Cmax (60 mg/day, ABCB1 rs1128503 T/T (n 4), read-out: Cmax (SD)): 1.49 ng/mL | Tmax (60 mg/day, ABCB1 rs1128503 T/T (n 4), read-out: Tmax (SD)): 16.2 h | AUC(0-t) (60 mg/day, ABCB1 rs2032582 G/G (n 4), read-out: AUClast (SD)): 164 ng·h/mL | Cmax (60 mg/day, ABCB1 rs2032582 G/G (n 4), read-out: Cmax (SD)): 14.1 ng/mL | Tmax (60 mg/day, ABCB1 rs2032582 G/G (n 4), read-out: Tmax (SD)): 2 h | AUC(0-t) (60 mg/day, ABCB1 rs2032582 T/G (n 9), read-out: AUClast (SD)): 51.6 ng·h/mL | Cmax (60 mg/day, ABCB1 rs2032582 T/G (n 9), read-out: Cmax (SD)): 4.87 ng/mL | Tmax (60 mg/day, ABCB1 rs2032582 T/G (n 9), read-out: Tmax (SD)): 9.56 h | AUC(0-t) (60 mg/day, ABCB1 rs2032582 T/T (n 5), read-out: AUClast (SD)): 19.4 ng·h/mL | Cmax (60 mg/day, ABCB1 rs2032582 T/T (n 5), read-out: Cmax (SD)): 1.74 ng/mL | Tmax (60 mg/day, ABCB1 rs2032582 T/T (n 5), read-out: Tmax (SD)): 13.8 h | AUC(0-t) (60 mg/day, ABCB1 rs4148738 C/C (n 5), read-out: AUClast (SD)): 18.9 ng·h/mL | Cmax (60 mg/day, ABCB1 rs4148738 C/C (n 5), read-out: Cmax (SD)): 1.78 ng/mL | Tmax (60 mg/day, ABCB1 rs4148738 C/C (n 5), read-out: Tmax (SD)): 10.6 h | AUC(0-t) (60 mg/day, ABCB1 rs4148738 C/T (n 9), read-out: AUClast (SD)): 51.9 ng·h/mL | Cmax (60 mg/day, ABCB1 rs4148738 C/T (n 9), read-out: Cmax (SD)): 4.85 ng/mL | Tmax (60 mg/day, ABCB1 rs4148738 C/T (n 9), read-out: Tmax (SD)): 11.3 h | AUC(0-t) (60 mg/day, ABCB1 rs4148738 T/T (n 4), read-out: AUClast (SD)): 164 ng·h/mL | Cmax (60 mg/day, ABCB1 rs4148738 T/T (n 4), read-out: Cmax (SD)): 14.1 ng/mL | Tmax (60 mg/day, ABCB1 rs4148738 T/T (n 4), read-out: Tmax (SD)): 2 h | AUC(0-t) (60 mg, CYP2C8 rs10509681 T/C (n 2), read-out: AUClast (SD)): 62.5 ng·h/mL | Cmax (60 mg, CYP2C8 rs10509681 T/C (n 2), read-out: Cmax (SD)): 5.69 ng/mL | Tmax (60 mg, CYP2C8 rs10509681 T/C (n 2), read-out: Tmax (h, SD)): 3 h | AUC(0-t) (60 mg, CYP2C8 rs10509681 T/T (n 16), read-out: AUClast (SD)): 68.2 ng·h/mL | Cmax (60 mg, CYP2C8 rs10509681 T/T (n 16), read-out: Cmax (SD)): 6.11 ng/mL | Tmax (60 mg, CYP2C8 rs10509681 T/T (n 16), read-out: Tmax (h, SD)): 9.81 h | AUC(0-t) (60 mg, CYP2C8 rs11572080 C/C (n 16), read-out: AUClast (SD)): 68.2 ng·h/mL | Cmax (60 mg, CYP2C8 rs11572080 C/C (n 16), read-out: Cmax (SD)): 6.11 ng/mL | Tmax (60 mg, CYP2C8 rs11572080 C/C (n 16), read-out: Tmax (h, SD)): 9.81 h | AUC(0-t) (60 mg, CYP2C8 rs11572080 C/T (n 2), read-out: AUClast (SD)): 62.5 ng·h/mL | Cmax (60 mg, CYP2C8 rs11572080 C/T (n 2), read-out: Cmax (SD)): 5.69 ng/mL | Tmax (60 mg, CYP2C8 rs11572080 C/T (n 2), read-out: Tmax (h, SD)): 3 h | AUC(0-t) (60 mg, CYP2C9 *1/*1, NM (n = 11), mean ± SD, read-out: AUClast): 37.5 ± 42.4 ng·h/mL | Cmax (60 mg, CYP2C9 *1/*1, NM (n = 11), mean ± SD, read-out: Cmax): 3.66 ± 4.07 ng/mL | Tmax (60 mg, CYP2C9 *1/*1, NM (n = 11), mean ± SD, read-out: Tmax): 12.9 ± 9.14 h | AUC(0-t) (60 mg, CYP2C9 *2/*3, PM (n = 2), mean ± SD, read-out: AUClast): 177 ± 224 ng·h/mL | Cmax (60 mg, CYP2C9 *2/*3, PM (n = 2), mean ± SD, read-out: Cmax): 11.3 ± 13.6 ng/mL | Tmax (60 mg, CYP2C9 *2/*3, PM (n = 2), mean ± SD, read-out: Tmax): 2.5 ± 2.12 h | AUC(0-t) (60 mg, CYP2C19 *1/*1, NM (n = 8), mean ± SD, read-out: AUClast): 98 ± 124 ng·h/mL | Cmax (60 mg, CYP2C19 *1/*1, NM (n = 8), mean ± SD, read-out: Cmax): 8.44 ± 9.71 ng/mL | Tmax (60 mg, CYP2C19 *1/*1, NM (n = 8), mean ± SD, read-out: Tmax): 8.75 ± 10.1 h | AUC(0-t) (60 mg, CYP2C19 *1/*17, RM (n = 6), mean ± SD, read-out: AUClast): 50.5 ± 51.6 ng·h/mL | Cmax (60 mg, CYP2C19 *1/*17, RM (n = 6), mean ± SD, read-out: Cmax): 4.5 ± 4.61 ng/mL | Tmax (60 mg, CYP2C19 *1/*17, RM (n = 6), mean ± SD, read-out: Tmax): 9.17 ± 7.33 h | AUC(0-t) (60 mg, CYP3A *1/*1, EM (n = 16), mean ± SD, read-out: AUClast): 52.7 ± 63.3 ng·h/mL | Cmax (60 mg, CYP3A *1/*1, EM (n = 16), mean ± SD, read-out: Cmax): 5.32 ± 6.58 ng/mL | Tmax (60 mg, CYP3A *1/*1, EM (n = 16), mean ± SD, read-out: Tmax): 9.75 ± 8.93 h | AUClast (area under the concentration-time curve up to the last measurable point) (40 mg/day oral): 39.7 and 128.526 and 20.601 and 13.049 and 18.213 and 10.234 and 34.56 and 101.166 and 120.462 and 21.211 and 2.735 and 84.631 and 10.412 and 4.928 and 48.451 and 17.602 | Cmax (maximum plasma concentration) (40 mg/day oral): 3.95 and 22.764 and 1.686 and 1.136 and 1.739 and 0.656 and 5.76 and 15.011 and 19.462 and 3.535 and 0.456 and 5.034 and 0.72 and 0.405 and 3.119 and 1.379 | Tmax (time to maximum plasma concentration) (40 mg/day oral): 1 h and 12 h | AUClast (area under the concentration-time curve up to the last measurable point) (60 mg/day oral): 19.08 and 237.522 and 35.852 and 16.597 and 21.462 and 105.854 and 58.513 and 4.589 and 25.375 and 51.929 and 37.407 and 14.483 and 13.976 and 62.698 and 11.57 and 152.359 and 11.552 and 335.306 | Cmax (maximum plasma concentration) (60 mg/day oral): 1.663 and 25.28 and 3.324 and 1.155 and 1.59 and 9.707 and 7.329 and 0.325 and 2.291 and 4.963 and 2.974 and 1.614 and 1.37 and 8.694 and 1.712 and 13.569 and 0.613 and 20.897 | Tmax (time to maximum plasma concentration) (60 mg/day oral): 1 h and 12 h and 5 h
